# Measured values as given in PubChem BioAssay AID248 (DTP/NCI, 2004).
# Values joined by “and” are separate entries in the source; they are usually repeats but may differ in a detail not shown here. Equal values may be shown once. Toxic doses and inconclusive results are not listed.
# Tested on: L1210 leukemia ip in BDF1 mice, survival T/C
# Experiment: NCI In Vivo Anticancer Drug Screen. Data for tumor model L1210 Leukemia (intraperitoneal) in B6D2F1 (BDF1) mice
# Conditions: endpoint: mean survival time, higher = longer survival
# Outline: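 Ratio derived from survival: compound-dosed mice over vehicle-dosed mice, all bearing a transplantable tumor.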
# [1] = dose: 100.0 mg/kg/injection, schedule: Q01DX001 (ip), vehicle: saline
# [2] = dose: 200.0 mg/kg/injection, schedule: Q01DX001 (ip), vehicle: saline
# [3] = dose: 400.0 mg/kg/injection, schedule: Q01DX001 (ip), vehicle: saline
# [4] = dose: 100.0 mg/kg/injection, schedule: Q04DX002 (ip), vehicle: Klucel (hydroxypropylcellulose) (HPC)
# [5] = dose: 200.0 mg/kg/injection, schedule: Q04DX002 (ip), vehicle: Klucel (hydroxypropylcellulose) (HPC)
# [6] = dose: 400.0 mg/kg/injection, schedule: Q04DX002 (ip), vehicle: Klucel (hydroxypropylcellulose) (HPC)
# [7] = dose: 200.0 mg/kg/injection, schedule: Q01DX009 (ip), vehicle: saline with Tween-80
# [8] = dose: 400.0 mg/kg/injection, schedule: Q01DX009 (ip), vehicle: saline with Tween-80
# [9] = dose: 50.0 mg/kg/injection, schedule: Q01DX009 (ip), vehicle: saline with Tween-80
# [10] = dose: 100.0 mg/kg/injection, schedule: Q04DX002 (ip), vehicle: saline with Tween-80
# [11] = dose: 100.0 mg/kg/injection, schedule: Q04DX003 (ip), vehicle: saline with Tween-80
# [12] = dose: 200.0 mg/kg/injection, schedule: Q04DX002 (ip), vehicle: saline with Tween-80
# [13] = dose: 200.0 mg/kg/injection, schedule: Q04DX003 (ip), vehicle: saline with Tween-80
# [14] = dose: 400.0 mg/kg/injection, schedule: Q04DX002 (ip), vehicle: saline with Tween-80
# [15] = dose: 400.0 mg/kg/injection, schedule: Q04DX003 (ip), vehicle: saline with Tween-80
# [16] = dose: 100.0 mg/kg/injection, schedule: Q01DX001 (ip), vehicle: carboxymethylcellulose (CMC)
# [17] = dose: 200.0 mg/kg/injection, schedule: Q01DX001 (ip), vehicle: carboxymethylcellulose (CMC)
# [18] = dose: 400.0 mg/kg/injection, schedule: Q01DX001 (ip), vehicle: carboxymethylcellulose (CMC)
# [19] = dose: 100.0 mg/kg/injection, schedule: Q01DX009 (ip), vehicle: saline
# [20] = dose: 200.0 mg/kg/injection, schedule: Q01DX009 (ip), vehicle: saline
# [21] = dose: 400.0 mg/kg/injection, schedule: Q01DX009 (ip), vehicle: saline
# [22] = dose: 100.0 mg/kg/injection, schedule: Q04DX003 (ip), vehicle: saline
# [23] = dose: 200.0 mg/kg/injection, schedule: Q04DX003 (ip), vehicle: saline
smiles,measurement,setting,value
O=S1(=O)C2CCCCC2(N2CCOCC2)C1c1ccccc1 (stereo not given),T/C,"dose: 66.0 mg/kg/injection, schedule: Q04DX003 (ip), vehicle: other",118 % of control
same,T/C,"dose: 100.0 mg/kg/injection, schedule: Q01DX009 (ip), vehicle: other",97 % of control
same,T/C,"dose: 100.0 mg/kg/injection, schedule: Q04DX003 (ip), vehicle: other",101 % of control and 202 % of control
same,T/C,"dose: 150.0 mg/kg/injection, schedule: Q04DX003 (ip), vehicle: other",93 % of control
same,T/C,"dose: 200.0 mg/kg/injection, schedule: Q01DX009 (ip), vehicle: other",97 % of control
same,T/C,"dose: 200.0 mg/kg/injection, schedule: Q04DX003 (ip), vehicle: other",97 % of control
same,T/C,"dose: 400.0 mg/kg/injection, schedule: Q01DX009 (ip), vehicle: other",100 % of control
same,T/C,"dose: 400.0 mg/kg/injection, schedule: Q04DX003 (ip), vehicle: other",94 % of control
CCCCCCCC(Cc1ccccc1)C(N)=O (stereo not given),T/C,[1],97 % of control
same,T/C,[2],92 % of control
same,T/C,[3],92 % of control
O=C(NC1CCCC1)c1ccc(C(=O)NC2CCCC2)cc1,T/C,[1],91 % of control
same,T/C,[2],91 % of control
Cc1ccc(C(=O)N/N=C/c2ccc(Cl)cc2Cl)cc1,T/C,[4],100 % of control
same,T/C,[5],95 % of control
same,T/C,[6],95 % of control
O=C(O)CC1(CC(=O)O)CCCCC1,T/C,"dose: 100.0 mg/kg/injection, schedule: Q01DX009 (ip), vehicle: saline with Tween-80",90 % of control
same,T/C,[7],95 % of control
same,T/C,[8],92 % of control
CC(=O)Nc1ccc(OC(=O)Nc2cccc(Cl)c2C)cc1,T/C,[9],88 % of control and 92 % of control
same,T/C,"dose: 100.0 mg/kg/injection, schedule: Q01DX001 (ip), vehicle: saline with Tween-80",92 % of control
same,T/C,[10],87 % of control and 89 % of control
same,T/C,[11],93 % of control
same,T/C,"dose: 200.0 mg/kg/injection, schedule: Q01DX001 (ip), vehicle: saline with Tween-80",94 % of control
same,T/C,[12],86 % of control
same,T/C,[13],87 % of control
same,T/C,"dose: 400.0 mg/kg/injection, schedule: Q01DX001 (ip), vehicle: saline with Tween-80",100 % of control
same,T/C,[8],101 % of control
same,T/C,[14],96 % of control and 86 % of control
same,T/C,[15],90 % of control
COc1ccccc1-n1c(O)c(N=Nc2ccc(Cl)cc2)c(=O)n(-c2ccc(C)cc2)c1=S,T/C,"dose: 100.0 mg/kg/injection, schedule: Q01DX001 (ip), vehicle: Klucel (hydroxypropylcellulose) (HPC)",98 % of control
same,T/C,"dose: 200.0 mg/kg/injection, schedule: Q01DX001 (ip), vehicle: Klucel (hydroxypropylcellulose) (HPC)",96 % of control
same,T/C,"dose: 400.0 mg/kg/injection, schedule: Q01DX001 (ip), vehicle: Klucel (hydroxypropylcellulose) (HPC)",105 % of control
N#Cc1ccc(CC(O)(c2ccccc2)c2ccccc2)cc1,T/C,"dose: 50.0 mg/kg/injection, schedule: Q01DX001 (ip), vehicle: carboxymethylcellulose (CMC)",106 % of control
same,T/C,[16],101 % of control
same,T/C,[17],98 % of control
same,T/C,[18],89 % of control
O=C1c2cc([N+](=O)[O-])ccc2-c2ccc([N+](=O)[O-])cc21,T/C,"dose: 50.0 mg/kg/injection, schedule: Q01DX009 (ip), vehicle: Klucel (hydroxypropylcellulose) (HPC)",95 % of control and 90 % of control
same,T/C,[16],89 % of control
same,T/C,"dose: 100.0 mg/kg/injection, schedule: Q01DX009 (ip), vehicle: Klucel (hydroxypropylcellulose) (HPC)",109 % of control
same,T/C,[4],101 % of control
same,T/C,[17],87 % of control
same,T/C,"dose: 200.0 mg/kg/injection, schedule: Q01DX009 (ip), vehicle: Klucel (hydroxypropylcellulose) (HPC)",98 % of control and 102 % of control
same,T/C,[5],113 % of control
same,T/C,[18],97 % of control
same,T/C,[6],89 % of control
Cc1ccc(C(=O)CCCCl)cc1C,T/C,[11],95 % of control
same,T/C,[13],89 % of control
same,T/C,[15],88 % of control
Nc1nc2ncc(NCc3ccc(C(=O)NC(CCC(=O)O)C(=O)O)cc3)nc2c(=O)[nH]1 (stereo not given),T/C,[1],92 % of control
same,T/C,[19],103 % of control
same,T/C,"dose: 100.0 mg/kg/injection, schedule: Q04DX002 (ip), vehicle: saline",96 % of control and 100 % of control
same,T/C,[2],91 % of control
same,T/C,[20],100 % of control
same,T/C,"dose: 200.0 mg/kg/injection, schedule: Q04DX002 (ip), vehicle: saline",100 % of control and 102 % of control
same,T/C,[3],100 % of control
same,T/C,[21],96 % of control
same,T/C,"dose: 400.0 mg/kg/injection, schedule: Q04DX002 (ip), vehicle: saline",100 % of control and 105 % of control
Cc1nc2c(c(=O)[nH]1)OCN(C)C2,T/C,"dose: 50.0 mg/kg/injection, schedule: Q01DX001 (ip), vehicle: saline",104 % of control
same,T/C,[1],101 % of control
same,T/C,[2],109 % of control
same,T/C,[3],122 % of control
CCCCCCCCCCCCc1ccc(CSC(C(=O)OC)C(SCc2ccc(CCCCCCCCCCCC)cc2)C(=O)OC)cc1 (stereo not given),T/C,[22],103 % of control
same,T/C,[23],101 % of control
same,T/C,"dose: 400.0 mg/kg/injection, schedule: Q04DX003 (ip), vehicle: saline",94 % of control
C/C(=N/OC(=O)N(C)C)c1ccc(Cl)cc1Cl,T/C,"dose: 100.0 mg/kg/injection, schedule: Q01DX001 (ip), vehicle: other",107 % of control
O=C(O)c1c(O)c2cc([N+](=O)[O-])ccc2oc1=O,T/C,[16],89 % of control
same,T/C,[10],95 % of control and 111 % of control
same,T/C,[17],103 % of control
same,T/C,[12],114 % of control
same,T/C,[18],100 % of control
same,T/C,[14],115 % of control
CCOC(=O)N/N=C/C(Br)=C\c1ccccc1,T/C,[9],93 % of control
same,T/C,[10],101 % of control
same,T/C,[7],87 % of control
same,T/C,[12],96 % of control
CC(=O)Nc1nc(Cl)c2ncn(C3CC(OC(=O)c4ccc(C)cc4)C(COC(=O)c4ccc(C)cc4)O3)c2n1 (stereo not given),T/C,"dose: 100.0 mg/kg/injection, schedule: Q01DX005 (ip), vehicle: saline",109 % of control and 114 % of control
same,T/C,[19],102 % of control
same,T/C,"dose: 200.0 mg/kg/injection, schedule: Q01DX005 (ip), vehicle: saline",103 % of control and 104 % of control
same,T/C,[20],102 % of control
same,T/C,[21],107 % of control
O=S1(=O)OCc2ccccc21,T/C,"dose: 50.0 mg/kg/injection, schedule: Q01DX009 (ip), vehicle: acetone",106 % of control
same,T/C,[16],100 % of control
same,T/C,"dose: 100.0 mg/kg/injection, schedule: Q01DX009 (ip), vehicle: acetone",97 % of control
same,T/C,[22],100 % of control
same,T/C,[17],100 % of control
same,T/C,[23],94 % of control
O=C(NNc1nc(-c2ccccc2)nc(-c2ccccc2)n1)c1ccccc1,T/C,[1],95 % of control
same,T/C,[2],96 % of control
same,T/C,[3],89 % of control
O=C(O)C1CCCC1C(=O)O (stereo not given),T/C,"dose: 75.0 mg/kg/injection, schedule: Q04DX003 (ip), vehicle: saline",94 % of control
same,T/C,"dose: 150.0 mg/kg/injection, schedule: Q04DX003 (ip), vehicle: saline",102 % of control
same,T/C,"dose: 300.0 mg/kg/injection, schedule: Q04DX003 (ip), vehicle: saline",95 % of control
[CH3][Sb]([CH3])([CH3])([O]C(=O)CF)[O]C(=O)CF,T/C,"dose: 1.25 mg/kg/injection, schedule: Q04DX003 (ip), vehicle: saline with Tween-80",91 % of control
same,T/C,"dose: 2.5 mg/kg/injection, schedule: Q04DX003 (ip), vehicle: saline with Tween-80",96 % of control
same,T/C,"dose: 5.0 mg/kg/injection, schedule: Q04DX003 (ip), vehicle: saline with Tween-80",110 % of control
same,T/C,"dose: 5.0 mg/kg/injection, schedule: Q04DX003 (ip), vehicle: saline",107 % of control
COC(=O)CCN1CC1(C)C (stereo not given),T/C,"dose: 25.0 mg/kg/injection, schedule: Q04DX003 (ip), vehicle: Klucel (hydroxypropylcellulose) (HPC)",96 % of control
same,T/C,"dose: 50.0 mg/kg/injection, schedule: Q04DX003 (ip), vehicle: Klucel (hydroxypropylcellulose) (HPC)",98 % of control
same,T/C,"dose: 100.0 mg/kg/injection, schedule: Q04DX003 (ip), vehicle: Klucel (hydroxypropylcellulose) (HPC)",96 % of control
